Values quoted from earlier work as cited in US12121514B2, “Nonselective metabotropic glutamate receptor activators for treatment of attention deficit disorder and 22Q syndrome” (THE CHILDREN'S HOSPITAL OF PHILADELPHIA, priority 2015, dated 2024).

Assays:
[1] = system: adenylate cyclase activity through group I, II and III mGluRs; settings: cited from earlier work
[2] = system: group I and group II/III mGluRs; settings: in vitro studies; cited from earlier work
[3] = system: pediatric ADHD subjects; settings: cited from earlier work

Row | SMILES | adenylate cyclase activity through group I mGluRs [1] | adenylate cyclase activity through group II and III mGluRs [1] | stimulation of mGluRs [2] | ADHD symptoms compared to a placebo control [3]
1 | O=C1CC[C@H](C(=O)N2CCCCC2)N1 [Fasoracetam, fasoracetam] | may stimulate adenylate cyclase activity | may also inhibit adenylate cyclase activity | can stimulate both group I and group II/III mGluRs | –
2 | NC(=O)CN1CCCC1=O [piracetam] | – | – | – | increase ADHD symptoms
